Key:
ACE2 [1] = target: T1, ACE2 (Homo sapiens, UniProt Q9BYF1); details: it has been reported; no reference given; cited from earlier work
ACE2 [2] = target: T1, ACE2; test: Directed screen of ACE2 versus a set of metalloprotease inhibitors; format: biochemical; details: directed screen of GlaxoSmithKline metalloprotease inhibitor set

T1 sequence (Q9BYF1 18-805): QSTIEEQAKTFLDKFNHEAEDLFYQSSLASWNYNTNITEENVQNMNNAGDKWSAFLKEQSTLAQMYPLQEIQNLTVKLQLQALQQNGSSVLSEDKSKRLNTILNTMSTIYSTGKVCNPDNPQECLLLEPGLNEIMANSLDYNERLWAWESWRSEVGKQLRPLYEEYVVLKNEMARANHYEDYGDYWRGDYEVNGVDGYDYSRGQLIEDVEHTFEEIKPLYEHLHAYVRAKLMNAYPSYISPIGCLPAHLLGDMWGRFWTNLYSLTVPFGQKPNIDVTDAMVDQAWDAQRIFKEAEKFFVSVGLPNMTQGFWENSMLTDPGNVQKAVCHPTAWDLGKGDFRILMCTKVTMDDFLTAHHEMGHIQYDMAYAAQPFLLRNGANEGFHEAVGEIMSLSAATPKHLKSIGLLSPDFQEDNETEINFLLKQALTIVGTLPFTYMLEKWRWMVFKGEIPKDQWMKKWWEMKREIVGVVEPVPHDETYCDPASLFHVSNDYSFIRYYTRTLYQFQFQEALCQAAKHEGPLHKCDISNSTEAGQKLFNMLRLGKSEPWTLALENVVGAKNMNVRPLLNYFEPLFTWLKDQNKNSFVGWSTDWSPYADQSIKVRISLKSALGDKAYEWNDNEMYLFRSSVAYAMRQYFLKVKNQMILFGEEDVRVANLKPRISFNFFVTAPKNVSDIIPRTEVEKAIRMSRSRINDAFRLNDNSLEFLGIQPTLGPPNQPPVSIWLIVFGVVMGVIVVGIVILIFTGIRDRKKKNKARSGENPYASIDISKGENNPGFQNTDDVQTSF

Row | Structure (SMILES) | effect on ACE2 enzyme activity (ACE2 [1]) | activity in the ACE2 screen (ACE2 [2])
1 | NCCCC[C@H](N[C@@H](CCc1ccccc1)C(=O)O)C(=O)N1CCC[C@H]1C(=O)O [lisinopril] | do not attenuate ACE2 enzyme activity | –
2 | C[C@H](CS)C(=O)N1CCC[C@H]1C(=O)O [captopril] | do not attenuate ACE2 enzyme activity | inactive
